Reference: patent publication US6943191B1, “Disubstituted lavendustin A analogs and pharmaceutical composition comprising the analogs” (The United States of America as represented by the …, priority 1998, dated 2005)
Like-named read-outs stand apart in the source and are kept apart here.

How the values were obtained:
[1] = test system: minimum of 12 human cancer cell lines; assay: Hollow fiber assay in mice, point score; format: in vivo; conditions: for Hollow Fiber Assay IP score: first number of cell; for Hollow Fiber Assay SC score: second number of cell; for IP+SC score / SC score: hollow fiber assay
Protocol: Compounds satisfying Formulas 1 and 2 also have been tested for in vivo activity in the hollow fiber assay. See Example 12 below for the procedure used for the in vivo tests. Each compound tested was tested against a minimum of 12 human cancer cell lines. Data is reported as % T/C (i.e., the […]) for each of the 2 compound doses against each of the cell lines with separate values calculated for the intraperitoneal and subcutaneous samples, with a target value for % T/C being about 50 or less.
Compounds were selected for further in vivo testing in standard subcutaneous xenograft models on the basis of several hollow fiber assay criteria. These criteria include: (1) a % T/C of 50 or less in 10 of the 48 possible test combinations (12 cell lines×2 sites×2 compound doses); (2) activity at a distance (intrapentoneal drug/subcutaneous culture) in a minimum of 4 of the 24 possible combinations; and/or (3) a net cell kill of 1 or more cell lines in either implant site. To simplify evaluation, a point system has been adopted which allows rapid assessment of a compound's activity. A value of 2 is assigned for each compound dose which results in a 50% or greater reduction in viable cell mass. The intraperitoneal and subcutaneous samples were scored separately so that criteria (1) and (2) could be evaluated. Compounds with a combined IP+SC score≧20, an SC score≧8, or a net cell kill of one or more cell lines were referred for xenograft testing. These criteria have been statistically validated by comparing the activity outcomes of greater than 80 randomly selected compounds in the hollow fiber assay and in the xenograft testing.
This example describes the method used for in vivo testing of mice. Human cancer cells were cultivated in polyvinylidene fluoride (PVDF) hollow fibers. A sample of each cancer cell line was implanted intraperitoneally and subcutaneously in mice. Each mouse received a total of 6 fibers, 3 intraperitoneally and 3 subcutaneously, representing 3 distinct cancer cell lines. Three mice were treated with compounds made according to the present invention at each of two test doses intraperitoneally using a QD×4 treatment schedule. Vehicle controls consisted of 6 mice receiving the compound diluent only The fiber cultures were collected on the day following the last treatment. Anticancer effects were assessed by determining viable cell mass for each of the coil line using a formazan dye (MTT) conversion assay. From this, the % TIC was calculated using the average optical density of the compound-treated samples divided by the average optical density of the vehicle controls. In addition, the net increase in cell mass was determined for each sample as samples of fiber cultures were assessed for viable cell mass on the day of implantation into mice. This allowed cytostatic and cytocidal capacities of these compounds to be assessed.

K562 cells = assay: K562 cell culture and growth assay, 6 day MTT; format: cell-based, human; conditions: K562, 6 days, 4 or more experiments
Summary of the method: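 Cells (2×10^3/well) in RPMI with 10% fetal calf serum incubated with increasing compound concentrations in DMSO, with DMSO-matched controls. Growth quantitated after 6 days by MTT reduction to formazan.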

[2] = test system: panel of approximately 60 different human tumor cell lines; assay: National Cancer Institute drug screen, mean-graph parameters; format: cell-based; conditions: mean over cell line panel, two days exposure; for GI50: Homo sapiens, 48 h, read-out: Tumor Cell Mean log GI50 (converted)
Summary of the method: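 About 60 human tumour cell lines in eight histology subpanels were exposed continuously to a concentration range for two days. GI50 (50% growth decrease versus untreated control), TGI (cell number equal to start) and LC50 (50% reduction versus start) were derived per cell line and summarised as mean-graph negative log10 values.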

[3] = Table 10, mean ± S.E., read-out: IC50 (μM) 6dMTT
[4] = Table 8, intraperitoneal fibers
[5] = Homo sapiens, 144 h, Table 8, mean+S.E., read-out: IC50 (μM) 6 dMTT
[6] = Homo sapiens, 144 h, Table 10, mean ± S.E., read-out: IC50 (μM) 6dMTT

SMILES	Hollow Fiber Assay IP score ([1]; Table 10)	Hollow Fiber Assay SC score ([1]; Table 10)	Hollow Fiber Assay Total Ip and SC Score ([1]; Table 10)	Tumor Cell Mean log TGI ([2]; Table 10)	Hollow Fiber Assay IP score [1, 4]	Hollow Fiber Assay SC score ([1]; Table 8, subcutaneous fibers)	Hollow Fiber Assay Total Ip and SC Score ([1]; Table 8)	IC50 (K562 cells; [5])	Tumor Cell Mean log GI50 ([2]; Table 8)	Tumor Cell Mean log TGI ([2]; Table 8)	also measured
COC(=O)c1ccc(/C=C/C2=CC(=O)C=CC2=O)cc1 [COOCH3 / 2,5-quinoyl / CH═CH / H]	2	0	2	−4.40	–	–	–	–	–	–	IC50 (K562 cells; [3]): 17.8 ± 0.22 µM; Tumor Cell Mean log GI50 ([2]; Table 10): −4.86
CC(C)OC(=O)c1ccc(CCC2=CC(=O)C=CC2=O)cc1 [COOCH(CH3)2 / 2,5-quinoyl / CH2—CH2 / H]	0 + 0 = 0	0 + 0 = 0	0 + 0 = 0	−4.58	–	–	–	–	–	–	IC50 (K562 cells; [3]): 19.9 ± 0.5 µM; Tumor Cell Mean log GI50 ([2]; Table 10): −5.05
CC(C)C(OC(=O)c1ccc(NCC2=CC(=O)C=CC2=O)cc1)C(C)C [COOCH[CH(CH3)2]2 / H / 2,5-quinoyl]	–	–	–	–	–	–	–	–	–	–	Hollow Fiber Assay IP score ([1]; Table 9, intraperitoneal fibers): 2; Hollow Fiber Assay SC score ([1]; Table 9, subcutaneous fibers): 4; Hollow Fiber Assay Total Ip and SC Score ([1]; Table 9): 6; IC50 (K562 cells; Table 9, mean ± S.E., read-out: IC50 (μM) 6dMTT): 38.8 ± 12.8 µM; Tumor Cell Mean log GI50 ([2]; Table 9): −5.25; Tumor Cell Mean log TGI ([2]; Table 9): −4.78
CC(C)OC(=O)c1ccc(NCc2cc(O)ccc2O)cc1 [COOCH(CH3)2 / H / H]	–	–	–	–	4	6	10	15.1 µM	−5.52	−4.84	–
O=C(OC12CC3CC(CC(C3)C1)C2)c1ccc(NCc2cc(O)ccc2O)cc1 [Compound 6, 4′-adamantylbenzoate-1′-N-2,5-dihydroxybenzylamine]	–	–	–	–	8	8	16	9.75 µM	−6.03	−5.44	IP+SC score [1]: 16; SC score [1]: 8
CC(C)C(OC(=O)c1ccc(NCc2cc(O)ccc2O)cc1)C(C)C [COOCH[CH(CH3)2]2 / H / H]	–	–	–	–	4	2	6	9.98 µM	−5.91	−5.35	–
CC(C)OC(=O)c1ccc(NCc2cc(O)ccc2O)cc1Cl [COOCH(CH3)2 / Cl / H, 5′-chloro-4′-isopropylbenzoate-1′-N-2,5-dihydroxybenzylamine]	–	–	–	–	2	0	2	–	−5.46	−5.65	IC50 (K562 cells; Table 8, mean+S.E., read-out: IC50 (μM) 6 dMTT): 21.6 µM
O=C(OCc1ccccc1)c1ccc(NCc2cc(O)ccc2O)cc1 [COOCH2Ph / H / H]	–	–	–	–	6	2	8	12 µM	−5.85	−5.35	–
CC(C)OC(=O)c1ccc(CCC2=CC(=O)C(Br)=CC2=O)cc1	0 + 0 = 0	0 + 0 = 0	0 + 0 = 0	−4.48	–	–	–	–	–	–	IC50 (K562 cells; [3]): 59.8 ± 0.44 µM; Tumor Cell Mean log GI50 ([2]; Table 10): −4.85
COC(=O)c1ccc(C=Cc2cc(O)ccc2O)cc1 [COOCH3 / 2,5-dihydoxyphenyl / CH═CH / H]	2	4	6	−4.81	–	–	–	–	–	–	IC50 (K562 cells; [6]): 9.72 ± 0.49 µM; GI50 ([2]; Table 10): 3.31 µM
CC(C)(C)OC(=O)c1ccc(NCc2cc(O)ccc2O)cc1 [COOC(CH3)3 / H / H, 4′-t-butylbenzoate-1′-N-2,5-dihydroxybenzylamine]	–	–	–	–	2	2	4	16.4 µM	−5.66	−5.03	–
O=C(OCC12CC3CC(CC(C3)C1)C2)c1ccc(NCc2cc(O)ccc2O)cc1 [Compound 7, 4′-4′-adamantylmethylbenzoate-1′-N-2,5-dihydroxybenzylamine]	–	–	–	–	12	8	20	12.8 µM	−5.89	−5.09	IP+SC score [1]: 20; SC score [1]: 8
COC(=O)c1ccc(CCC2=CC(=O)C(Br)=CC2=O)cc1	0 + 0 = 0	0 + 0 = 0	0 + 0 = 0	−4.43	–	–	–	–	–	–	IC50 (K562 cells; [6]): 36.5 ± 1 µM; GI50 ([2]; Table 10): 14.1 µM
COC(=O)c1ccc(CCc2cc(O)c(Br)cc2O)cc1	0 + 0 = 0	0 + 0 = 0	0 + 0 = 0	−4.54	–	–	–	–	–	–	IC50 (K562 cells; [6]): 7 ± 0.5 µM; GI50 ([2]; Table 10): 12.3 µM
